In PubChem BioAssay (NCI):
Several values for one entry are separate records, joined by “and”; a condition that tells them apart may be missing. Equal entries are not always repeated.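 Dose response: 5 concentrations. Exposure: 48 h. Format: 96-well plates. Endpoint: linear interpolation; highest concentration if not reached. At the GI50, growth is halved. TGI marks complete inhibition of growth.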

Tests used:
Assay in all cases: DTP human tumour cell line panel, 48 h
[1] = tested on: UACC-257 melanoma
[2] = tested on: SK-MEL-2 melanoma
[3] = tested on: UO-31 renal
[4] = tested on: MOLT-4 leukemia
[5] = tested on: SNB-75 CNS
[6] = tested on: TK-10 renal
[7] = tested on: HOP-92 NSCLC
[8] = tested on: U251 CNS
[9] = tested on: OVCAR-5 ovarian
[10] = tested on: SR leukemia
[11] = tested on: EKVX NSCLC
[12] = tested on: HCT-116 colon
[13] = tested on: RPMI-8226 leukemia
[14] = tested on: RXF 393 renal
[15] = tested on: SF-268 CNS
[16] = tested on: ACHN renal
[17] = tested on: KM12 colon
[18] = tested on: UACC-62 melanoma
[19] = tested on: NCI/ADR-RES ovarian

Row | Structure (SMILES) | TGI [1] [µM] | TGI [2] [µM] | TGI [3] [µM] | TGI [4] [µM] | TGI [5] [µM] | TGI [6] [µM] | TGI [7] [µM] | TGI [8] [µM] | TGI [9] [µM] | TGI [10] [µM] | TGI [11] [µM] | TGI [12] [µM] | TGI [13] [µM] | TGI [14] [µM] | TGI [15] [µM] | TGI [16] [µM] | TGI [17] [µM] | TGI [18] [µM] | TGI [19] [µM] | GI50 [5]
1 | O=c1[nH]c(=O)n(C2OC(CO)C(O)C2O)cc1NN=NCc1ccccc1 (stereo not drawn) | > 100 | > 100 | > 100 | > 100 | > 100 | > 100 | > 100 | > 100 | > 100 | > 100 | > 100 | > 80.1 | > 76.2 | > 100 | > 100 | > 100 | > 100 | > 100 |  | 
2 | CNC(C#N)c1ccc(OC)cc1 (stereo not drawn) | > 100 | > 100 | > 100 | > 100 |  | > 100 | > 100 | > 100 | > 100 |  | > 100 | > 100 |  | > 100 | > 100 | > 100 | > 100 | > 100 | > 100 | 
3 | Nc1ncnc2c1ccn2C/C=C\CO | > 100 | > 100 | > 100 | > 100 | > 100 | > 100 | > 100 | > 100 | > 100 |  | > 100 | > 100 | > 100 | > 100 | > 100 | > 100 | > 100 | > 100 | > 100 | 
4 | O=c1[nH]c2c(nc1NC13CC4CC(CC(C4)C1)C3)c(=O)oc1ccccc12 | > 100 | > 100 | > 100 | > 100 | > 100 | > 100 | > 100 | 33.1 | > 100 | > 100 | > 100 | > 100 | > 100 | > 100 | > 100 | > 100 | > 100 | > 100 |  | 
5 | CCOC(=O)C1(C#N)C(c2ccccc2)CC(O)(c2ccc(OC)cc2)C(C(=O)c2ccc(OC)cc2)C1c1ccccc1 (stereo not drawn) | > 100 | > 100 | > 100 | > 100 | 95.3 | > 100 |  | > 100 | > 100 | > 100 | > 100 | > 100 | > 100 | > 100 | > 100 | > 100 | > 100 | > 100 |  | 
6 | OC1(C(F)(F)F)OCCN=C1C(F)(F)F (stereo not drawn) | > 100 | > 100 | > 100 | > 100 | > 100 | > 100 | > 100 | > 100 | > 100 |  | > 100 | > 100 | > 100 | > 100 | > 100 | > 100 | > 100 | > 100 | > 100 | 
7 | OCC1OC(c2cccc3cc(O)c(O)cc23)CC1O (stereo not drawn) | > 100 | > 100 | > 100 | > 100 | > 100 | > 100 | > 100 | > 100 | > 100 |  | > 100 | > 100 | > 100 |  | > 100 | > 100 | > 100 | > 100 | > 100 | 
8 | COCC1OC(Sc2ccccc2)C(O)C(OC)C1OC (stereo not drawn) | > 100 | > 100 | > 100 | > 100 | > 100 | > 100 |  | > 100 | > 100 | > 100 | > 100 | > 100 |  | > 100 | > 100 | > 100 | > 100 | > 100 | > 100 | > 100 µM and 10.1 µM
9 | COc1ccccc1/C(=N\OCCC(=O)O)c1cccs1 | > 100 | > 100 | > 100 | > 100 | > 100 | > 100 | > 100 | > 100 | > 100 |  | > 100 | > 100 | > 100 | > 100 | > 100 | > 100 | > 100 | > 100 | > 100 | 
10 | CCN(CC)CC1CCCCCCCCCCC1=O (stereo not drawn) | > 100 | > 100 | > 100 | > 100 | > 100 | > 100 |  | > 100 | > 100 | > 100 | > 100 | > 100 | > 100 |  | > 100 | > 100 | > 100 | > 100 |  | 
11 | OCCCCCCCCCCCOc1ccc(C2OCC3(CO2)COC(c2ccc(OCCCCCCCCCCCO)cc2)OC3)cc1 (stereo not drawn) | > 50 | > 50 | > 50 | > 50 | > 50 | > 50 |  | > 50 | > 50 | > 50 | > 50 | > 50 | > 50 |  | > 50 | > 50 | > 50 | > 50 | > 50 | 
12 | O=C(O)CC1NC(/C(=C/c2ccccc2)NC(=O)c2ccccc2)OC1=O (stereo not drawn) | > 100 | 66.6 | 59 | 45.1 | 74 | > 100 | > 100 | 34.5 | > 100 |  | > 100 | 42.9 | 63.4 | > 100 | > 100 | > 100 | 34.1 | 57.9 | 56.4 | 
13 | Cc1cc(N)c(C)c2c1[nH]c1ccc(O)cc12 | > 100 | > 100 | > 100 | > 100 |  | > 100 |  | > 100 | > 100 | > 100 | > 100 | > 100 | > 100 |  | > 100 | > 100 | > 100 |  |  | 
